Among the test systems are COLO 205; LOX IMVI; SF-539; OVCAR-3; NCI-H226; U-251; KM12; MOLT-4; SK-OV-3; NCI-H522; SNB-75; T47D; EKVX; NCI/ADR-RES; M14; SK-MEL-2; UACC-62; HCC 2998; Hs-578T; MDA-N.
What all share (test): inhibition of tumour cell growth, NCI panel, 48 h

Results on 13 molecules are retold here after ChEMBL document CHEMBL1201862, “PubChem BioAssay data set” (2004).

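Exposure lasted 48 hours, with cells grown in 96-well plates and compounds tested at five concentrations. Here, GI50 denotes the concentration required for 50% inhibition of growth.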 The source made the active and inactive calls. Cut-off read from the data, not from the text of the source: active = GI50 up to about 1.1 µM and inactive = higher.

`Cc1cc2nc3c(C#N)c(-c4ccccc4)cc(Nc4ccc(F)cc4)n3c2cc1C`: the GI50 in the assay on COLO 205 was > 100 µM (inactive); in the assay on LOX IMVI, 13.4 µM (inactive); in the assay with SF-539, 18.6 µM (inactive); in the assay on OVCAR-3, 12.2 µM (inactive); in the assay on NCI-H226, 27.2 µM (inactive); in the assay on U-251, 4.33 µM (inactive). The GI50 in the assay on KM12 is 86.7 µM (inactive); in the assay with MOLT-4 it was 17.6 µM (inactive); in the assay with SK-OV-3, 16.7 µM (inactive); in the assay with NCI-H522 it was 4.33 µM (inactive); with SNB-75, 15.9 µM (inactive); in the assay on T47D, > 100 µM (inactive). In addition, the GI50 is 14.6 µM (inactive) in the assay on EKVX and 8.11 µM (inactive) with NCI/ADR-RES.
For `O=NN(CCCl)C(=O)N[C@H]1CC[C@@H](C(=O)O)CC1`, the GI50 is > 100 µM (inactive) in the assay with COLO 205; 45.1 µM (inactive) with LOX IMVI; 29.6 µM (inactive) in the assay on SF-539; > 100 µM (inactive) in the assay with OVCAR-3; > 100 µM (inactive) in the assay on NCI-H226; > 100 µM (inactive) in the assay on M14. Moreover, the GI50 was 40.9 µM (inactive) in the assay on U-251; > 100 µM (inactive) in the assay on KM12; > 100 µM (inactive) in the assay on SK-MEL-2; 21.3 µM (inactive) in the assay on UACC-62; 32.2 µM (inactive) in the assay with MOLT-4; > 100 µM (inactive) in the assay on SK-OV-3. For the same molecule, the GI50 in the assay with NCI-H522 is 23 µM (inactive); with SNB-75, > 72.3 µM (inactive); in the assay with EKVX, > 100 µM (inactive); in the assay on HCC 2998, > 100 µM (inactive); with NCI/ADR-RES, > 100 µM (inactive).
On to `CCCCCCCCCC(=O)Oc1cccc2onc(C)c12`, for which the GI50 in the assay on COLO 205 is > 100 µM (inactive); in the assay on LOX IMVI, > 100 µM (inactive); with SF-539, > 100 µM (inactive); with OVCAR-3 it was > 100 µM (inactive); with NCI-H226, 88.9 µM (inactive); in the assay with M14 it was > 100 µM (inactive). The GI50 in the assay on U-251 is > 100 µM (inactive); in the assay on KM12 it was 77.4 µM (inactive); in the assay with SK-MEL-2, > 100 µM (inactive); with UACC-62, > 100 µM (inactive); in the assay with MOLT-4, 66.8 µM (inactive); in the assay on SK-OV-3, > 100 µM (inactive). Further, the GI50 with NCI-H522 is > 100 µM (inactive); in the assay with SNB-75, > 100 µM (inactive); in the assay on EKVX, > 100 µM (inactive); in the assay with HCC 2998 it was 79.1 µM (inactive).
For the molecule `COc1cc(OCc2nc3cc(C(F)(F)F)ccc3nc2-c2ccccc2)cc(OC)c1OC`, the GI50 was > 100 µM (inactive) in the assay with COLO 205; > 100 µM (inactive) with LOX IMVI; 45.8 µM (inactive) with SF-539; > 100 µM (inactive) with OVCAR-3; > 100 µM (inactive) with NCI-H226; 45.4 µM (inactive) in the assay with M14. In addition, the GI50 in the assay on U-251 is 39.6 µM (inactive); in the assay with KM12 it was > 100 µM (inactive); in the assay on SK-MEL-2, > 100 µM (inactive); with UACC-62 it was 61.4 µM (inactive); in the assay with MOLT-4, 8.75 µM (inactive); in the assay with SK-OV-3 it was > 100 µM (inactive). The GI50 in the assay on SNB-75 was 98.9 µM (inactive); with T47D it was 11.9 µM (inactive); in the assay with EKVX, 91.4 µM (inactive); in the assay on HCC 2998, > 100 µM (inactive); with NCI/ADR-RES it was 61.2 µM (inactive); with Hs-578T, 55.6 µM (inactive).
Consider `Cc1cn(C2CC(n3cncn3)C(C(C)O)O2)c(=O)[nH]c1=O` (stereo not drawn), for which the GI50 with COLO 205, with LOX IMVI, in the assay on SF-539, in the assay with OVCAR-3, in the assay with NCI-H226 and with M14 was > 100 µM (inactive) each time. The GI50 in the assay on U-251, with KM12, with SK-MEL-2, with UACC-62, in the assay on MOLT-4 and in the assay on SK-OV-3 was > 100 µM (inactive) each time. Moreover, the GI50 in the assay with NCI-H522, with SNB-75, in the assay on EKVX and in the assay with HCC 2998 was > 100 µM (inactive) throughout.
`COC1=CC(=O)C2C(C1=O)C(c1ccc(Cl)cc1)[C@@H]2C` (stereo partly drawn): the GI50 was 35 µM (inactive) in the assay with COLO 205; 22.4 µM (inactive) in the assay with LOX IMVI; 22.8 µM (inactive) with SF-539; 34.6 µM (inactive) in the assay with OVCAR-3; 22.1 µM (inactive) in the assay with NCI-H226; 25.7 µM (inactive) in the assay with M14. Also, the GI50 in the assay on U-251 is 25.2 µM (inactive); in the assay with KM12, 47.2 µM (inactive); in the assay with SK-MEL-2 it was 37.4 µM (inactive); with UACC-62, 24.7 µM (inactive); in the assay on MOLT-4 it was 31.6 µM (inactive); in the assay on SK-OV-3 it was > 100 µM (inactive). Moreover, the GI50 in the assay on NCI-H522 was 15.2 µM (inactive); in the assay with SNB-75 it was 17.4 µM (inactive); with EKVX, 26.3 µM (inactive); in the assay with HCC 2998 it was 45.5 µM (inactive).
Regarding `OC(c1cccnc1)C(F)(F)c1nc2ccccc2o1` (stereo not drawn), the GI50 with COLO 205, with LOX IMVI, in the assay with SF-539, in the assay on NCI-H226, in the assay on U-251 and with KM12 was > 100 µM (inactive) in each case. Besides, the GI50 in the assay with SK-MEL-2, with UACC-62, in the assay with MOLT-4, in the assay with SNB-75, in the assay on T47D and in the assay with EKVX was > 100 µM (inactive) throughout. Also, the GI50 in the assay with HCC 2998, in the assay on NCI/ADR-RES and in the assay with Hs-578T was > 100 µM (inactive) each time.
Take `CC(C)(C)OC(=O)NC(CO)c1cccc(OCc2ccccc2)c1` (stereo not drawn): the GI50 with COLO 205 is 47.3 µM (inactive); in the assay with LOX IMVI, 49 µM (inactive); with SF-539, > 100 µM (inactive); with OVCAR-3 it was > 100 µM (inactive); in the assay with NCI-H226 it was > 100 µM (inactive); in the assay on M14, 41.9 µM (inactive). Also, the GI50 with U-251 was 94.6 µM (inactive); in the assay on KM12 it was > 100 µM (inactive); in the assay with SK-MEL-2 it was > 100 µM (inactive); in the assay with UACC-62, 33 µM (inactive); in the assay with MOLT-4 it was 30.3 µM (inactive); in the assay with SK-OV-3, > 100 µM (inactive). Moreover, the GI50 in the assay with NCI-H522 was 46 µM (inactive); with SNB-75, > 100 µM (inactive); in the assay on EKVX it was 8.39 µM (inactive); with HCC 2998, > 100 µM (inactive).
For `CCOC(=O)C1Oc2ccc([N+](=O)[O-])c3c2C1(O)CCC3` (stereo not drawn), the GI50 in the assay with COLO 205, in the assay on LOX IMVI, with SF-539, with OVCAR-3, in the assay on NCI-H226 and in the assay with M14 was > 100 µM (inactive) in each case. Moreover, the GI50 in the assay on U-251, in the assay on KM12, in the assay on SK-MEL-2, with UACC-62, in the assay on MOLT-4 and in the assay with SK-OV-3 was > 100 µM (inactive) each time. Besides, the GI50 with NCI-H522, in the assay on SNB-75, with EKVX and with HCC 2998 was > 100 µM (inactive) each time.
In the case of `COC(=O)N1[C@H]2Cc3c(OC)c(C)c(OC)c(OC)c3[C@@H]1/C(=C\c1cc(OC)c(OC)c(C)c1OC)N(Cc1ccccc1)C2=O`, the GI50 is 13.8 µM (inactive) in the assay with COLO 205; 30.5 µM (inactive) in the assay on LOX IMVI; > 100 µM (inactive) in the assay with SF-539; 32.7 µM (inactive) in the assay with OVCAR-3; 0.23 µM (active) in the assay on NCI-H226; 29.7 µM (inactive) in the assay with M14. The GI50 with U-251 is 27.9 µM (inactive); in the assay with KM12, 27.4 µM (inactive); in the assay on SK-MEL-2, 24.7 µM (inactive); in the assay with UACC-62 it was 56.9 µM (inactive); in the assay on MOLT-4, 16.1 µM (inactive); with SK-OV-3 it was 57.3 µM (inactive). For the same molecule, the GI50 was 5.7 µM (inactive) in the assay with NCI-H522, 67.5 µM (inactive) with SNB-75, 37.7 µM (inactive) in the assay on EKVX and 8.51 µM (inactive) in the assay with HCC 2998.
Consider `CCOC(=O)C1S/C(=N\c2ccc(Cl)c(Cl)c2)N=C1C` (stereo not drawn), for which the GI50 is 29 µM (inactive) in the assay with COLO 205; 23.4 µM (inactive) in the assay with LOX IMVI; 34 µM (inactive) in the assay on SF-539; 17.9 µM (inactive) with OVCAR-3; 23.4 µM (inactive) in the assay on NCI-H226; 34.6 µM (inactive) with M14. Further, the GI50 with U-251 is 48.3 µM (inactive); in the assay on KM12, 27.9 µM (inactive); in the assay with SK-MEL-2 it was 95.1 µM (inactive); with UACC-62, 96.8 µM (inactive); in the assay with MOLT-4 it was 18.8 µM (inactive); in the assay with SK-OV-3, 53.8 µM (inactive). In addition, the GI50 was 24.7 µM (inactive) in the assay on NCI-H522, 29.9 µM (inactive) in the assay with SNB-75, > 100 µM (inactive) in the assay on EKVX and > 100 µM (inactive) in the assay with HCC 2998.
`N#Cc1c2c(c(Nc3cccc(C(F)(F)F)c3)n3c1nc1ccccc13)CCC2`: the GI50 in the assay on COLO 205, in the assay with LOX IMVI, in the assay on SF-539, in the assay with OVCAR-3, with NCI-H226 and with U-251 was > 100 µM (inactive) in each case. Besides, the GI50 in the assay with KM12, in the assay with MOLT-4, in the assay with SK-OV-3, in the assay with NCI-H522, with SNB-75 and in the assay on T47D was > 100 µM (inactive) throughout. The GI50 with EKVX and in the assay on NCI/ADR-RES was > 100 µM (inactive) in each case.
For the molecule `COc1ccc(C2OC(=O)c3c2ccc2ccccc32)c(C)c1` (stereo not drawn), the GI50 was 1.15 µM (inactive) in the assay with COLO 205; 5.25 µM (inactive) in the assay on NCI-H226; 1.32 µM (inactive) with M14; 3.43 µM (inactive) in the assay on U-251; 2.38 µM (inactive) in the assay with KM12; 1.34 µM (inactive) in the assay on SK-MEL-2. Besides, the GI50 in the assay on UACC-62 was 7.19 µM (inactive); in the assay on MOLT-4, 2.73 µM (inactive); in the assay with SNB-75, 2.93 µM (inactive); with MDA-N it was 0.499 µM (active); in the assay on EKVX, 6.07 µM (inactive); in the assay with HCC 2998, 1.02 µM (active). In the assay on Hs-578T, the GI50 is 3.44 µM (inactive).
